Source: patent publication US11730819B2, “Peptide derivatives having novel linkage structures” (priority 2016, dated 2023)
Several values for one entry are separate records, joined by “and”; a condition that tells them apart may be missing. Equal entries are not always repeated. Where two headings read alike, the source gives them in different places.

Experiments:
MT1-MMP hemopexin domain = molecular target: T1, MT1-MMP hemopexin domain (Homo sapiens, UniProt P50281); experiment: Fluorescence polarisation competition binding assay
T1 construct: residues Cys319-Gly511 from the human gene; His6 (N); made in house; host or cells: HEK293 cells (transient, pEXPR-IBA42 vector)
Description: The MT1-MMP hemopexin-like repeats (also known as the MT1-MMP hemopexin domain), residues Cys319-Gly511 from the human gene, were transiently expressed in HEK293 cells as secreted N-terminally His6-tagged soluble protein, using the pEXPR-IBA42 (IBA) expression vector. Following expression, the protein was purified by Nickel-NTA affinity chromatography followed by gel filtration, and purity was checked by SDS-PAGE. Batch to batch variability was also monitored by fluorescence thermal shift experiments in the presence/absence of a hemopexin domain binding bicycle.
(§1) Binding affinity was measured using competition assays using Fluorescence Polarisation (anisotropy).
Fluoresceination may be performed on the N-terminal amino group of the peptide, which is separated from the bicycle core sequence by a sarcosine spacer (usually Sar5). This can be done during Fmoc solid phase synthesis or post-synthetically (after cyclisation with TBMB and purification) if the N-terminal amino group is unique to the peptide. Fluoresceination can also be performed on the C-terminus, usually on a Lysine introduced as the first C-terminal residue, which is then separated from the bicycle core sequence by a sarcosine spacer (usually Sar6). Thus, N-terminal tracers can have a molecular format described as Fluo-Gly-Sar5-A(BicycleCoreSequence), and (BicycleCoreSequence)-A-Sar6-K(Fluo) for a C-terminally fluoresceinated construct. Fluorescent tracers used in the Examples are A-(17-69)-A-Sar6-K(Fluo), A-(17-69-07)-A-Sar6-K(Fluo), and A-(17-69-12)-A-Sar6-K(Fluo).
(§2) Here, a pre-formed complex of PEX with the fluorescent PEX-binding tracer is titrated with free, non-fluoresceinated bicyclic peptide. Since all 17-69-based peptides are expected to bind at the same site, the titrant will displace the fluorescent tracer from PEX. Dissociation of the complex can be measured quantitatively, and the Kd of the competitor (titrant) to the target protein determined. The advantage of the competition method is that the affinities of non-fluoresceinated bicyclic peptides can be determined accurately and rapidly.
(§3) Subsequently, the non-fluorescent competitor bicyclic peptide (usually just the bicycle core sequence) is titrated, such that it displaces the fluorescent tracer from the target protein. The displacement of the tracer is measured and associated with a drop in fluorescence polarisation. The drop in fluorescence polarisation is proportional to the fraction of target protein bound with the non-fluorescent titrant, and thus is a measure of the affinity of titrant to target protein.
(§4) The raw data is fit to the analytical solution of the cubic equation that describes the equilibria between fluorescent tracer, titrant, and binding protein. The fit requires the value of the affinity of fluorescent tracer to the target protein, which can be determined separately by direct binding FP experiments (see previous section).

rat/mouse MT1-MMP = rat/mouse MT1-MMP (Mus musculus, UniProt P53690); experiment: Binding affinity to rat/mouse MT1-MMP, measured as previously described; conditions: Binding Affinity (Ki in nM) rat/mouse ki, bicycle peptide-drug conjugates, two values given
Procedure: as §1, §2, §3
as §4, with “section). The curve fitting was performed using Sigmaplot 12.0 and used an adapted version of the equation described by Zhi-Xin Wang (FEBS Letters 360 (1995) 111-114).” for “section).”
The in vitro binding affinities of the bicycle peptide-drug conjugates prepared above were measured for MT1-MMP as previously described herein.

[1] = Plasma stability in mouse serum; assay type: in vitro ADME; conditions: 4 μm concentration, read-out: T1/2 in mouse serum
Description: (§5) The stability appears to be slightly greater than that of the corresponding conjugates in which the peptide is linked to the scaffold by three thioether linkages.

[2] = Plasma stability in human serum; assay type: in vitro ADME; conditions: 4 μm concentration, read-out: T1/2 in human serum
Description: as §5

[3] = Binding Affinity (Ki in nM) Human ki, bicycle peptide-drug conjugates, human MT1-MMP, two values given
[4] = Binding Affinity Ki (h), human MT1-MMP, bicycle peptides
[5] = human MT1-MMP, bicycle peptides, read-out: Binding Affinity Ki (h)

In the case of `CC[C@H](C)[C@@H]([C@@H](CC(=O)N1CCC[C@H]1[C@H](OC)[C@@H](C)C(=O)N[C@H](C)[C@@H](O)c1ccccc1)OC)N(C)C(=O)[C@@H](NC(=O)[C@H](C(C)C)N(C)C(=O)OCc1ccc(NC(=O)[C@H](CCCNC(N)=O)NC(=O)[C@@H](NC(=O)CCCC(=O)NCCC(=O)N(C)CC(=O)N(C)CC(=O)N(C)CC(=O)N(C)CC(=O)N(C)CC(=O)N(C)CC(=O)N(C)CC(=O)N(C)CC(=O)N(C)CC(=O)N(C)CC(=O)N[C@@H](C)C(=O)N[C@H]2CN(C)Cc3cc4cc(c3)CN(C)C[C@@H](C(N)=O)NC(=O)[C@H](C(C)(C)C)NC(=O)[C@H](CC(=O)O)NC(=O)[C@H](Cc3ccc(O)cc3)NC(=O)[C@H](Cc3ccccc3)NC(=O)[C@H](CC(=O)O)NC(=O)[C@H](CCC(=O)O)NC(=O)[C@H](CSC4)NC(=O)[C@@H](C)NC(=O)[C@H](Cc3cccc4ccccc34)NC(=O)[C@H](CCC(=O)O)NC(=O)[C@H](CC(N)=O)NC(=O)[C@@H](C)NC2=O)C(C)C)cc1)C(C)C` [BT17BDC-68], the Ki (MT1-MMP hemopexin domain; [3]) is reported as 2.9 nM and 3.3 nM and the Ki (rat/mouse MT1-MMP) is reported as 1.8 nM and 1.6 nM.
For `CC[C@H](C)[C@@H]([C@@H](CC(=O)N1CCC[C@H]1[C@H](OC)[C@@H](C)C(=O)N[C@H](C)[C@@H](O)c1ccccc1)OC)N(C)C(=O)[C@@H](NC(=O)[C@H](C(C)C)N(C)C(=O)OCc1ccc(NC(=O)[C@H](CCCNC(N)=O)NC(=O)[C@@H](NC(=O)Cn2cc(CCC(=O)NCCC(=O)N(C)CC(=O)N(C)CC(=O)N(C)CC(=O)N(C)CC(=O)N(C)CC(=O)N(C)CC(=O)N(C)CC(=O)N(C)CC(=O)N(C)CC(=O)N(C)CC(=O)N[C@@H](C)C(=O)N[C@H]3CNCc4cc5cc(c4)CSC[C@H](NC(=O)[C@@H](C)NC(=O)[C@H](Cc4cccc6ccccc46)NC(=O)[C@H](CCC(=O)O)NC(=O)[C@H](CC(N)=O)NC(=O)[C@@H](C)NC3=O)C(=O)N[C@@H](CCC(=O)O)C(=O)N[C@@H](CC(=O)O)C(=O)N[C@@H](Cc3ccccc3)C(=O)N[C@@H](Cc3ccc(O)cc3)C(=O)N[C@@H](CC(=O)O)C(=O)N[C@@H](C(C)(C)C)C(=O)N[C@H](C(N)=O)CNC5)nn2)C(C)C)cc1)C(C)C` [BT17BDC-53], the Ki (MT1-MMP hemopexin domain; [3]) was 3.6 nM and 2.5 nM, the half-life at 4 μm [1] was greater than 50 h and the Ki (rat/mouse MT1-MMP) was 1.8 nM and 1.6 nM. The half-life at 4 μm [2] was greater than 50 h.
In the case of `CC[C@H](C)[C@@H]([C@@H](CC(=O)N1CCC[C@H]1[C@H](OC)[C@@H](C)C(=O)N[C@H](C)[C@@H](O)c1ccccc1)OC)N(C)C(=O)[C@@H](NC(=O)[C@H](C(C)C)N(C)C(=O)OCc1ccc(NC(=O)[C@H](CCCNC(N)=O)NC(=O)[C@@H](NC(=O)Cn2cc(CCC(=O)N[C@@H](C)C(=O)N[C@H]3CN(C)Cc4cc5cc(c4)CN(C)C[C@@H](C(N)=O)NC(=O)[C@H](C(C)(C)C)NC(=O)[C@H](CC(=O)O)NC(=O)[C@H](Cc4ccc(O)cc4)NC(=O)[C@H](Cc4ccccc4)NC(=O)[C@H](CC(=O)O)NC(=O)[C@H](CCC(=O)O)NC(=O)[C@H](CSC5)NC(=O)[C@@H](C)NC(=O)[C@H](Cc4cccc5ccccc45)NC(=O)[C@H](CCC(=O)O)NC(=O)[C@H](CC(N)=O)NC(=O)[C@@H](C)NC3=O)nn2)C(C)C)cc1)C(C)C` [BT17BDC-62], the Ki (MT1-MMP hemopexin domain; [3]) is reported as 3.9 nM and 3.3 nM and the Ki (rat/mouse MT1-MMP) is reported as 2.1 nM and 1.9 nM.
For `CC(=O)N[C@@H](C)C(=O)N[C@H]1CN(C)Cc2cc3cc(c2)CN(C)C[C@H](NC(=O)[C@@H](C)NC(=O)[C@H](Cc2cccc4ccccc24)NC(=O)[C@H](CCC(=O)O)NC(=O)[C@H](CC(N)=O)NC(=O)[C@@H](C)NC1=O)C(=O)N[C@@H](CCC(=O)O)C(=O)N[C@@H](CC(=O)O)C(=O)N[C@@H](Cc1ccccc1)C(=O)N[C@@H](Cc1ccc(O)cc1)C(=O)N[C@@H](CC(=O)O)C(=O)N[C@@H](C(C)(C)C)C(=O)N[C@H](C(N)=O)CN(C)C3` [17-69-07-N474, Ac-A(Dap(Me))(D-Ala)NE(1NaI)(D-Ala)(Dap(Me))EDFYD(tBuGly)(Dap(Me))], the Kd (MT1-MMP hemopexin domain) was 8 nM and the Ki (MT1-MMP hemopexin domain) was 7.5 nM.
Compound `CC(=O)NCCC(=O)N(C)CC(=O)N(C)CC(=O)N(C)CC(=O)N(C)CC(=O)N(C)CC(=O)N(C)CC(=O)N(C)CC(=O)N(C)CC(=O)N(C)CC(=O)N(C)CC(=O)N[C@@H](C)C(=O)N[C@H]1CNCc2cc3cc(c2)CSC[C@H](NC(=O)[C@@H](C)NC(=O)[C@H](Cc2cccc4ccccc24)NC(=O)[C@H](CCC(=O)O)NC(=O)[C@H](CC(N)=O)NC(=O)[C@@H](C)NC1=O)C(=O)N[C@@H](CCC(=O)O)C(=O)N[C@@H](CC(=O)O)C(=O)N[C@@H](Cc1ccccc1)C(=O)N[C@@H](Cc1ccc(O)cc1)C(=O)N[C@@H](CC(=O)O)C(=O)N[C@@H](C(C)(C)C)C(=O)N[C@H](C(N)=O)CNC3` [17-69-07-N455, Ac-(B-Ala)-Sar10-A(Dap)(D-Ala)NE(1Nal)(D-Ala)CEDFYD(tBuGly)(Dap)] has a Ki (MT1-MMP hemopexin domain; [4]) of 4 nM.
`C#CCCC(=O)N[C@H](CC(=O)O)C(=O)N[C@H](CC(=O)O)C(=O)N[C@H](CC(=O)O)C(=O)N(C)CC(=O)N(C)CC(=O)N[C@@H](C)C(=O)N[C@H]1CN(C)Cc2cc3cc(c2)CN(C)C[C@@H](C(N)=O)NC(=O)[C@H](C(C)(C)C)NC(=O)[C@H](CC(=O)O)NC(=O)[C@H](Cc2ccc(O)cc2)NC(=O)[C@H](Cc2ccccc2)NC(=O)[C@H](CC(=O)O)NC(=O)[C@H](CCC(=O)O)NC(=O)[C@H](CSC3)NC(=O)[C@@H](C)NC(=O)[C@H](Cc2cccc3ccccc23)NC(=O)[C@H](CCC(=O)O)NC(=O)[C@H](CC(N)=O)NC(=O)[C@@H](C)NC1=O` [17-69-07-N471, (PYA)-(D-Asp)3-Sar2-A(Dap(Me))(D-Ala)NE(1Nal)(D-Ala)CEDFYD(tBuGly)(Dap(Me))] gave a Ki (MT1-MMP hemopexin domain; [5]) of 4.6 nM.
With `C[C@H](NC(=O)CN(C)C(=O)CN(C)C(=O)CN(C)C(=O)CN(C)C(=O)CN(C)C(=O)CN(C)C(=O)CN(C)C(=O)CN(C)C(=O)CN(C)C(=O)CN(C)C(=O)CCN)C(=O)N[C@H]1CN(C)Cc2cc3cc(c2)CN(C)C[C@@H](C(N)=O)NC(=O)[C@H](C(C)(C)C)NC(=O)[C@H](CC(=O)O)NC(=O)[C@H](Cc2ccc(O)cc2)NC(=O)[C@H](Cc2ccccc2)NC(=O)[C@H](CC(=O)O)NC(=O)[C@H](CCC(=O)O)NC(=O)[C@H](CSC3)NC(=O)[C@@H](C)NC(=O)[C@H](Cc2cccc3ccccc23)NC(=O)[C@H](CCC(=O)O)NC(=O)[C@H](CC(N)=O)NC(=O)[C@@H](C)NC1=O` [17-69-07-N451, (B-Ala)-Sar10-A(Dap(Me))(D-Ala)NE(1Nal)(D-Ala)CEDFYD(tBuGly)(Dap(Me))] the Ki (MT1-MMP hemopexin domain; [5]) was 3.7 nM.
Compound `C#CCCC(=O)N[C@@H](C)C(=O)N[C@H]1CNCc2cc3cc(c2)CSC[C@H](NC(=O)[C@@H](C)NC(=O)[C@H](Cc2cccc4ccccc24)NC(=O)[C@H](CCC(=O)O)NC(=O)[C@H](CC(N)=O)NC(=O)[C@@H](C)NC1=O)C(=O)N[C@@H](CCC(=O)O)C(=O)N[C@@H](CC(=O)O)C(=O)N[C@@H](Cc1ccccc1)C(=O)N[C@@H](Cc1ccc(O)cc1)C(=O)N[C@@H](CC(=O)O)C(=O)N[C@@H](C(C)(C)C)C(=O)N[C@H](C(N)=O)CNC3` [17-69-07-N438, PYA-A(Dap)(D-Ala)NE(1Nal)(D-Ala)CEDFYD(tBuGly)(Dap)] has a Ki (MT1-MMP hemopexin domain; [4]) of 3.1 nM.
